Test results reported in ChEMBL document CHEMBL1142731, “Concentration and pH dependent aggregation of hydrophobic drug molecules and relevance to oral bioavailability” (J Med Chem, 2005).

What was measured:
[1] = pKa value was determined; assay type: physicochemical
[2] = Area under the concentration time curve in rat after 40 mg/kg oral dosage; assay type: ADME, organism-based; parameters: dose 40 mg/kg, route oral; unit not given here; settings: in vivo
[3] = Area under the concentration time curve in human after 100 mg/kg oral dosage; assay type: ADME, organism-based; parameters: dose 100 mg/kg, route oral; unit not given here; settings: in vivo

pKa [1]	AUC [2]	AUC [3]	Compound
3.1	1.5		N#Cc1ccc(Nc2nc(N)nc(Cc3c(Cl)cccc3Cl)n2)cc1
2.7			Cc1cc(C#N)cc(C)c1Oc1nc(Nc2ccc(C#N)cc2)ncc1Br
3.6			Cc1cc(C)c(Nc2nc(Nc3ccc(C#N)cc3)ncc2Cl)c(C)c1
1.9	0.6		N#Cc1ccc(Nc2nc(N)nc(Oc3c(Cl)cccc3Cl)n2)cc1
2.8	4.4		N#Cc1ccc(Nc2nc(N)nc(Cc3c(Cl)ccc(Cl)c3Cl)n2)cc1
	7.3		N#Cc1ccc(Nc2nc(N)cc(Cc3c(Cl)cccc3Cl)n2)cc1
3.5			Cc1cc(C#N)cc(C)c1Oc1nc(Nc2ccc(C#N)cc2)nc(N)c1Br [ETRAVIRINE]

Further lines, the compound ahead of its results:

Compound	pKa [1]	AUC [2]	AUC [3]
N#Cc1ccc(Nc2nc(N)nc(Cc3c(Cl)ccc4[nH]ccc34)n2)cc1	3.3	67.5	
Cc1cc(C#N)cc(C)c1Nc1ccnc(Nc2ccc(C#N)cc2)n1	5.1	49.3	8.2
N#Cc1ccc(Nc2nc(Cc3c(Cl)cccc3Cl)nc(NO)n2)cc1	2.5	0.1	0.1
Cc1cc(C)c(Nc2ncnc(Nc3ccc(C#N)cc3)n2)c(C)c1	2.6		
Cc1cc(C)c(Nc2nc(N)nc(Nc3ccc(C#N)cc3)n2)c(C)c1	3.8		
Cc1cc(C#N)cc(C)c1Oc1nc(Nc2ccc(C#N)cc2)nc(CO)c1Br	2	0.6	
